Results as given in PubChem BioAssay (NCI).
Where “and” joins values, the source holds several entries; their conditions need not be identical. Equal values may be shown once.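 The compound was tested at five concentrations on cells cultured in 96-well plates, with a 48-hour exposure period. GI50 is the concentration that inhibits growth by half. TGI: concentration producing complete growth inhibition.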

Legend:
Test in all cases: NCI tumour cell line growth inhibition, 48 h
IGROV1 ovarian = test system: IGROV1 ovarian
OVCAR-4 ovarian = test system: OVCAR-4 ovarian
CAKI-1 renal = test system: CAKI-1 renal
HT29 colon = test system: HT29 colon
NCI-H23 lung = test system: NCI-H23 lung
COLO 205 colon = test system: COLO 205 colon
MOLT-4 leukemia = test system: MOLT-4 leukemia
MALME-3M melanoma = test system: MALME-3M melanoma
HS 578T breast = test system: HS 578T breast
PC-3 prostate = test system: PC-3 prostate

Structure (SMILES)	TGI (IGROV1 ovarian)	TGI (OVCAR-4 ovarian) [µM]	TGI (CAKI-1 renal) [µM]	TGI (HT29 colon) [µM]	TGI (NCI-H23 lung) [µM]	TGI (COLO 205 colon) [µM]	TGI (MOLT-4 leukemia) [µM]	GI50 (MALME-3M melanoma)	TGI (MALME-3M melanoma) [µM]	GI50 (IGROV1 ovarian)	GI50 (HT29 colon)	GI50 (OVCAR-4 ovarian) [µM]	GI50 (CAKI-1 renal) [µM]	GI50 (HS 578T breast) [µM]	TGI (HS 578T breast) [µM]	GI50 (COLO 205 colon) [µM]	GI50 (MOLT-4 leukemia) [µM]	GI50 (PC-3 prostate) [µM]	TGI (PC-3 prostate) [µM]	GI50 (NCI-H23 lung) [µM]
O=C1C=C(c2ccccc2)NC1(c1ccccc1)c1cc(-c2ccccc2)[nH]c1-c1ccccc1 (configuration not stated)	> 100 µM	> 100	> 100	> 100	> 100	> 100	> 100													
COc1ccc(-c2cc(-c3ccco3)c(C#N)c(=O)n2C2OC(COC(C)=O)C(OC(C)=O)C(OC(C)=O)C2OC(C)=O)cc1 (configuration not stated)	> 100 µM and 94.4 µM	> 100	> 100	> 100	> 100	> 100	> 100	> 100 µM and 25 µM	> 100	> 100 µM and 12.9 µM	> 100 µM and 28.6 µM									
Nc1ccccc1SC(CC(=O)c1ccccc1)c1c(Cl)cccc1Cl (configuration not stated)	8.62 µM	18.4	39.9	5.03		29.9	7.79	10.8 µM	25.3	2.74 µM	2.29 µM	4.84	4.9	4.48	49.5	10.9	3			
NNC(=O)C(=O)N/N=C1\CCCC1C(=O)CCC(=O)Nc1cccc(Cl)c1 (configuration not stated)	> 100 µM	> 100		> 100	> 100	> 100	> 100		> 100											
Cc1ccc(-c2csc3ncnc(Nc4cccc(O)c4)c23)cc1	57.5 µM	> 100		> 100	46.5	> 100	> 100			17.8 µM	39.7 µM	44.6		36.5	> 100	36.4	41.6	16.3	37.1	22.6
CCCOC(=O)C1C(c2ccc(OC)cc2)NC(c2ccc(OC)cc2)C(C(=O)OCCC)S1(=O)=O (configuration not stated)	> 100 µM	> 100	> 100	> 100	> 100	> 100	> 100	> 100 µM	> 100	> 100 µM	> 100 µM	> 100	> 100			> 100	> 100			> 100
CCCCCCCCCCCCNCCCc1ccccc1	3.49 µM	2.98	3.44	3.21	3.65	3.43	4.5	1.97 µM	3.64	1.93 µM	1.75 µM	1.57	1.79	1.66	3.72	1.87	2.04			1.9
C=CCN=C1NC(=O)C(CC(=O)Nc2ccc([N+](=O)[O-])cc2[N+](=O)[O-])S1 (configuration not stated)	> 100 µM	> 100	> 100	> 100	> 100	> 100	> 100		> 100											
O=C1CC2=CCCC2O1 (configuration not stated)	> 100 µM	> 100	> 100	> 100	> 100	> 100	> 100		> 100											
